A word on the IC50: it is the concentration needed to halve the response being measured.

Bounds are passed on as bounds.

In one assay the target is PDE10 from pig striatum (Sus scrofa, UniProt A0A287B941). As to the kind of experiment: Inhibition of PDE10 from pig striatum ([3H]-cAMP SPA). It is filed as biochemical. The following applies: Table 7; read-out: PDE10 pig IC50. On the procedure: Phosphodiesterase isoenzyme 10 (PDE10) activity was determined in preparations of human recombinant PDE10A and PDE10 from pig striatum, respectively.
Striatum from male hybrid pigs (150 kg) were collected and frozen at −70° C.
At the day of preparation 0.5 g striatum was homogenised in 10 ml 50 mM Tris/Mg-buffer at 4° C. and centrifuged for one hour at 100000 g. The supernatant was removed and the pellet was resuspended in the same buffer, but containing 1% Triton and incubated for 45 min at 4° C. The membrane fraction was applied onto a 5 ml Hi Trap™ QHP column at the Akta-FPLC. After washing the column the bound PDE protein was eluted with an increasing sodium chloride gradient (O mM-500 mM sodium chloride) in 50 mM Tris/Mg-buffer at 4° C. in the presence of 1% Triton. […] The fractions with PDE10-activity were pooled and frozen in aliquots until use at −20° C.
PDE10 activity was determined in a one step procedure in microtiterplates. […] Nonspecific activity was tested without the enzyme. The reaction was initiated by addition of the substrate solution and was carried out at 37° C. for 30 minutes. Enzymatic activity was stopped by addition of 25 μl YSi-SPA-beads (Amersham-Pharmacia). One hour later the mixture was measured in a liquid scintillation counter for microtiterplates (Microbeta Trilux). To pipette the incubation mixture a robot Biomek (Fa. Beckman) is used. […] For determination of IC50 values the Hill-plot, 2-parameter-model, was used.
The phosphodiesterase isoenzyme 10 (PDE10) activity was determined in preparations of rat, pig and guinea pig striatum respectively. Striatum from male Wistar rats (180-200 g), male hybrid pigs (150 kg) and male guinea pigs (CRL (HA), 500 g) respectively were collected and frozen at −70° C.
At the day of preparation 0.5 g striatum was homogenized in 10 ml 50 mM Tris/Mg-buffer at 4° C. and centrifuged for one hour at 100000 g. The supernatant is called the cytosolic fraction and was removed and stored on ice. The pellet was resuspended in the same buffer, but containing 1% Triton and incubated for 45 min at 4° C. Both fractions were independently applied onto a 5 ml Hi Trap™ QHP column at the Akta-FPLC. After washing the columns the bound PDE protein was eluted with an increasing sodium chloride gradient (0 mM-500 mM sodium chloride) in 50 mM Tris/Mg-buffer at 4° C. for the cytosolic fraction and in the presence of 1% Triton for the membrane fraction. […] The fractions with PDE10-activity were pooled and frozen in aliquots until use at −20° C.
PDE10 activity was determined in a one step procedure in microtiterplates. […] Nonspecific activity was tested without the enzyme. The reaction was initiated by addition of the substrate solution and was carried out at 37° C. for 30 minutes. Enzymatic activity was stopped by addition of 25 μl YSi-SPA beads (Amersham-Pharmacia). One hour later the mixture was measured in a liquid scintillation counter for microtiterplates (Microbeta Trilux). To pipette the incubation mixture a robot Biomek (Fa. Beckman) is used. […] For determination of IC50 values the Hill-plot, 2-parameter-model, was used.
In the case of `Cc1nc(CCC(F)(F)F)n2c1c(Cl)nc1ccc(OCC(F)(F)F)nc12` [Example 1, 6-Chloro-7-methyl-2-(2,2,2-trifluoroethoxy)-9-(3,3,3-trifluoropropyl)imidazo[1,5-a]pyrido[3,2-e]pyrazine], the IC50 was 10 to 100 nM.
The same measure, in the same setting: with `COc1ccc2nc(C)c3c(C)nc(-c4ccc(Cl)cc4C)n3c2n1` [Example 13, 9-(4-Chloro-2-methylphenyl)-2-methoxy-6,7-dimethylimidazo[1,5-a]pyrido[3,2-e]pyrazine] the figure was below 10 nM; with `COc1ccc2nc(C)c3c(C)nc(-c4cncnc4)n3c2n1` [Example 27, 2-Methoxy-6,7-dimethyl-9-pyrimidin-5-ylimidazo[1,5-a]pyrido[3,2-e]pyrazine], below 10 nM; with `CCOc1ccc2nc(C)c3c(C)nc(-c4ccccc4Cl)n3c2n1` [Example 4, 9-(2-Chlorophenyl)-2-ethoxy-6,7-dimethylimidazo[1,5-a]pyrido[3,2-e]pyrazine], below 10 nM.
With `COc1ccc2nc(C)c3c(C)nc(-c4ccc(F)nc4)n3c2n1` [Example 9, 9-(6-Fluoropyridin-3-yl)-2-methoxy-6,7-dimethylimidazo[1,5-a]pyrido[3,2-e]pyrazine], the IC50 lay within 10 to 100 nM.
As for `CCCc1nc(C)c2c(C)nc3ccc(OCC)nc3n12` [Example 3, 2-Ethoxy-6,7-dimethyl-9-propylimidazo[1,5-a]pyrido[3,2-e]pyrazine], the IC50 was in the range of 10 to 100 nM.
In the case of `COc1ccc2nc(C)c3c(C)nc(-c4ccc(C)cc4F)n3c2n1` [Example 14, 9-(2-Fluoro-4-methylphenyl)-2-methoxy-6,7-dimethylimidazo[1,5-a]pyrido[3,2-e]pyrazine], the IC50 is below 10 nM.
On to `COc1ccc2nc(C)c3c(C)nc(-c4ccc(C)cc4Cl)n3c2n1` [Example 12, 9-(2-Chloro-4-methylphenyl)-2-methoxy-6,7-dimethylimidazo[1,5-a]pyrido[3,2-e]pyrazine], for which the IC50 is below 10 nM.

Still in this assay, the particulars now being: Table 8; read-out: PDE10 pig IC50.
As to `CONC(=O)c1cccc(-c2nc(C)c3c(C)nc4ccc(OC)nc4n23)c1` [Example 102, N-Methoxy-3-(2-methoxy-6,7-dimethylimidazo[1,5-a]pyrido[3,2-e]pyrazin-9-yl)benzamide], the IC50 is 10 to 100 nM.
On the same count and under the same terms, with `COc1ccc2nc(C)c3c(C)nc(-c4cccc(F)c4C)n3c2n1` [Example 88, 9-(3-Fluoro-2-methylphenyl)-2-methoxy-6,7-dimethylmidazo[1,5-a]pyrido[3,2-e]pyrazine] the figure was below 10 nM; with `COc1ccc2nc(C)c3c(C)nc(-c4cccc(-c5ccccc5)c4)n3c2n1` [Example 71, 9-Biphenyl-3-yl-2-methoxy-6,7-dimethylimidazo[1,5-a]pyrido[3,2-e]pyrazine], 10 to 100 nM; with `COc1ccc2nc(C)c3c(C)nc(-c4ccccc4-c4ccccc4)n3c2n1` [Example 70, 9-Biphenyl-2-yl-2-methoxy-6,7-dimethylimidazo[1,5-a]pyrido[3,2-e]pyrazine], 10 to 100 nM.
Same read-out and setting: with `COc1ccc2nc(C)c3c(C)nc(C#Cc4ccccc4C)n3c2n1` [Example 99, 2-Methoxy-6,7-dimethyl-9-[(2-methylphenyl)ethynyl]imidazo[1,5-a]pyrido[3,2-e]pyrazine] the figure was above 100 nM.
Same read-out and setting: with `COc1ccc2nc(C)c3c(C)nc(-c4ccc(C(N)=O)cc4)n3c2n1` [Example 85, 4-(2-Methoxy-6,7-dimethylimidazo[1,5-a]pyrido[3,2-e]pyrazin-9-yl)benzamide] the figure was below 10 nM.
In the case of `COc1ccc2nc(C)c3c(C)nc(-c4ccc(OC(F)(F)F)cc4)n3c2n1` [Example 64, 2-Methoxy-6,7-dimethyl-9-[4-(trifluoromethoxy)phenyl]imidazo[1,5-a]pyrido[3,2-e]pyrazine], the IC50 lay in the range of 10 to 100 nM.
Consider `COc1ccc2nc(N)c3c(C)nc(CCC(F)(F)F)n3c2n1` [Example 44, 2-Methoxy-7-methyl-9-(3,3,3-trifluoropropyl)imidazo[1,5-a]pyrido[3,2-e]pyrazin-6-amine], for which the IC50 was in the range of 10 to 100 nM.
For the compound `COc1ccc2nc(C)c3c(C)nc(-c4cc(F)ccc4C)n3c2n1` [Example 81, 9-(5-Fluoro-2-methylphenyl)-2-methoxy-6,7-dimethylmidazo[1,5-a]pyrido[3,2-e]pyrazine], the IC50 is below 10 nM.
On the same count and under the same terms, the same measure for `COc1cccc(C#Cc2nc(C)c3c(C)nc4ccc(OC)nc4n23)c1` [Example 94, 2-Methoxy-9-[(3-methoxyphenyl)ethynyl]-6,7-dimethylimidazo[1,5-a]pyrido[3,2-e]pyrazine]: above 100 nM.
The same measure, in the same setting: with `COc1ccc2nc(C)c3c(C)nc(C#Cc4ccccc4)n3c2n1` [Example 75, 2-Methoxy-6,7-dimethyl-9-(phenylethynyl)imidazo[1,5-a]pyrido[3,2-e]pyrazine] the figure was 10 to 100 nM; with `COc1ccc2nc(C)c3c(C)nc(-c4cccc(C#N)c4)n3c2n1` [Example 73, 3-(2-Methoxy-6,7-dimethylimidazo[1,5-a]pyrido[3,2-e]pyrazin-9-yl)benzonitrile], 10 to 100 nM; with `COc1ccc2nc(C)c3c(C)nc(-c4ccc(C(F)(F)F)cc4)n3c2n1` [Example 67, 2-Methoxy-6,7-dimethyl-9-[4-(trifluoromethyl)phenyl]imidazo[1,5-a]pyrido[3,2-e]pyrazine], 10 to 100 nM.
For `COc1ccc2nc(C)c3c(C)nc(-c4cccc(C(=O)N(C)C)c4)n3c2n1` [Example 104, 3-(2-Methoxy-6,7-dimethylimidazo[1,5-a]pyrido[3,2-e]pyrazin-9-yl)-N,N-dimethylbenzamide], the IC50 is above 100 nM.
As to `COc1ccc2nc(C)c3c(C)nc(-c4cc(C(N)=O)ccc4F)n3c2n1` [Example 106, 4-Fluoro-3-(2-methoxy-6,7-dimethylimidazo[1,5-a]pyrido[3,2-e]pyrazin-9-yl)benzamide], the IC50 is below 10 nM.
For `COc1ccc2nc(C)c3c(C)nc(CCC(F)(F)F)n3c2n1` [Example 42, 2-Methoxy-6,7-dimethyl-9-(3,3,3-trifluoropropyl)imidazo[1,5-a]pyrido[3,2-e]pyrazine], the IC50 fell in the range of 10 to 100 nM.
Turning to `COc1ccc2nc(C)c3c(C)nc(C#Cc4ccccc4OC)n3c2n1` [Example 98, 2-Methoxy-9-[(2-methoxyphenyl)ethynyl]-6,7-dimethylimidazo[1,5-a]pyrido[3,2-e]pyrazine], the IC50 is above 100 nM.
On to `CNC(=O)c1ccc(F)c(-c2nc(C)c3c(C)nc4ccc(OC)nc4n23)c1` [Example 107, 4-Fluoro-3-(2-methoxy-6,7-dimethylimidazo[1,5-a]pyrido[3,2-e]pyrazin-9-yl)-N-methylbenzamide], for which the IC50 was above 100 nM.
The same measure, in the same setting: the same measure for `COc1ccc2nc(C)c3c(C)nc(-c4ccc(Cl)s4)n3c2n1` [Example 92, 9-(5-Chloro-2-thienyl)-2-methoxy-6,7-dimethylimidazo[1,5-a]pyrido[3,2-e]pyrazine]: 10 to 100 nM.
`COc1ccc2nc(C)c3c(C)nc(-c4cccc(C)c4)n3c2n1` [Example 65, 2-Methoxy-6,7-dimethyl-9-(3-methylphenyl)imidazo[1,5-a]pyrido[3,2-e]pyrazine]: the IC50 is below 10 nM.
Same read-out and setting: with `COc1ccc2nc(C)c3c(C)nc(-c4cc(C)ccc4Cl)n3c2n1` [Example 78, 9-(2-Chloro-5-methylphenyl)-2-methoxy-6,7-dimethylimidazo[1,5-a]pyrido[3,2-e]pyrazine] the figure was below 10 nM; with `COc1ccc2nc(C)c3c(C)nc(-c4ccc(Cl)cc4C)n3c2n1` [Example 80, 9-(4-Chloro-2-methylphenyl)-2-methoxy-6,7-dimethylimidazo[1,5-a]pyrido[3,2-e]pyrazine], below 10 nM.
With `COc1ccc2nc(C)c3c(C)nc(-c4ccc(F)cc4C)n3c2n1` [Example 82, 9-(4-Fluoro-2-methylphenyl)-2-methoxy-6,7-dimethylmidazo[1,5-a]pyrido[3,2-e]pyrazine], the 50% inhibitory concentration (IC50) was below 10 nM.
Regarding `CNC(=O)c1cccc(-c2nc(C)c3c(C)nc4ccc(OC)nc4n23)c1` [Example 100, 3-(2-Methoxy-6,7-dimethylimidazo[1,5-a]pyrido[3,2-e]pyrazin-9-yl)-N-methylbenzamide], the IC50 was above 100 nM.

The record behind these values is US20090143361A1, “Pyrido[3,2-E]Pyrazines, Process For Preparing The Same, And Their Use As Inhibitors Of Phosphodiesterase 10” (ELBION GMBH, priority 2007, published 2009).
